Experimental data reported in article PMC8658016, “Identification of New Compounds with Anticonvulsant and Antinociceptive Properties in a Group of 3-substituted (2,5-dioxo-pyrrolidin-1-yl)(phenyl)-Acetamides” (International Journal of Molecular Sciences, 2021).

How the values were obtained:
hepatoma HepG2 cells = assay: Hepatotoxicity, HepG2 viability (MTS); assay type: cell-based; settings: 72 h; viability affected at 100 µM only
mice [1] = assay: Subcutaneous pentylenetetrazole (scPTZ) seizure test; assay type: in vivo, mouse; settings: mice i.p.
CYP3A4 = target: T1, CYP3A4 (Homo sapiens, UniProt P08684); assay: CYP3A4 P450-Glo luminescent assay; assay type: in vitro ADME
T1 construct: purchased Promega (Madison, WI, USA)

mice [2] = assay: 6 Hz (44 mA) seizure test, model of drug-resistant epilepsy; assay type: in vivo; settings: Mus musculus, ip; mice i.p.; 95% confidence interval in parentheses
mice [3] = assay: Grip strength test (neuromuscular strength); assay type: in vivo, mouse; settings: 30 min
Protocol: Figure 3 Acute effect of compound 14 on the neuromuscular strength in mice. Compound 14 was administered i.p. 30 min before the test. Control animals received vehicle only. Each experimental group consisted of 10 animals. Each bar represents the mean + S.E.M. grip strengths in Newtons per gram of mouse body weight (N/g). * p < 0.05 vs. the control group (one-way ANOVA, followed by Dunnett’s post hoc test, GraphPad Prism 8.0.1).
In this study, we used adult male Swiss albino mice (Kołacz, Laboratory Animals Breeding, Warszawa, Poland) license no. 106/2019 (Local Ethical Committee in Lublin). In studies assessing the acute effect of compound 14 on neuromuscular strength, body temperature, and seizure threshold, compound 14 was suspended in a 1% solution of Tween 80 and administered i.p., 30 min before the tests.
The acute effect of compound 14 on neuromuscular strength was quantified using the grip-strength apparatus (BIOSEB, Chaville, France) according to the method described elsewhere.

mice [4] = assay: Capsaicin-induced neurogenic pain test; assay type: in vivo; settings: Mus musculus, ip; mice i.p.
Protocol: We used the capsaicin-induced pain model to test the impact of compound 14 on neurogenic pain. In this model, the activation of TRPV1 receptors on C-type primary afferents led to the release of inflammatory neuropeptides, contributing to the local and spinal sensitization and excitability.
The experiments were conducted on adult male Albino Swiss mice (CD-1, 18–25 g) and male Wistar rats (Krf:(WI) WU), 180–250 g) as described previously. The minimum number of animals used needed to obtain definite and normally distributed results with the utilized test. Behavioral measures were scored by trained observers, which were blind to experimental conditions. The following devices were used in the experiments: Analgesy Meter (37215, Ugo Basile), Plantar Test Apparatus (EFV5, Commat Ltd., Turkey), Plethysmometer (Plethysmometer 7140, Ugo Basile), Electronic von Frey unit (BIOSEB, France). […]
(§1) Data were presented as means ± standard error of the mean (S.E.M). […] Statistically significant differences between groups were calculated using one-way analysis of variance (ANOVA) and the post hoc Dunnett’s multiple comparison test or two-way analysis of variance (ANOVA) and the post hoc Tukey’s comparison when appropriate. […]

mice [5] = assay: Formalin test (tonic pain); assay type: in vivo; settings: Mus musculus, ip, mice i.p.
Protocol: The formalin test is a commonly used model of pain also useful in screening the analgesic activity of novel compounds. A subcutaneous formalin injection results in a biphasic nociceptive response; a phase one (5 min) followed by a quiescent period (10 min) and then phase two (15 min). C-fibers’ initial and direct stimulation in phase one led to peripheral inflammation accompanied by ongoing peripheral nerve activity and central sensitization during phase two. Moreover, a formalin injection induces persistent changes similar to those observed in nerve injury and subsequent neuropathic pain [27].
The experiments were conducted on adult male Albino Swiss mice (CD-1, 18–25 g) and male Wistar rats (Krf:(WI) WU), 180–250 g) as described previously. The minimum number of animals used needed to obtain definite and normally distributed results with the utilized test. Behavioral measures were scored by trained observers, which were blind to experimental conditions. […]
as §1

T1 sequence (P08684 whole entry): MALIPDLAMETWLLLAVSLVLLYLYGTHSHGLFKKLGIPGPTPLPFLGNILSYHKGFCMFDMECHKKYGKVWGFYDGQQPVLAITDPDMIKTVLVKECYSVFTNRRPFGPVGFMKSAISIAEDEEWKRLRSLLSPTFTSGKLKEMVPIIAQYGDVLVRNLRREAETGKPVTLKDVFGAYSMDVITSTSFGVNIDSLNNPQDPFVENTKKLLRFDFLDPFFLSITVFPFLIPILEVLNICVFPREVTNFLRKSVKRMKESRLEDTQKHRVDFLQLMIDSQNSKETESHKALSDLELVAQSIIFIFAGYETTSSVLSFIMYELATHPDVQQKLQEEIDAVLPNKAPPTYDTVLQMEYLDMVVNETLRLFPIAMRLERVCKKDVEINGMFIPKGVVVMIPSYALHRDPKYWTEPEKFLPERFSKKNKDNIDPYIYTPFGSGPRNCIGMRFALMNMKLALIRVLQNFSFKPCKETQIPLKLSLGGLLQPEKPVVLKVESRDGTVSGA

CN(C)C1CC(=O)N(C(C(=O)N2CCN(c3cccc(C(F)(F)F)c3)CC2)c2ccccc2)C1=O.Cl (centres unmarked) [Compound 14, 3-(Dimethylamino)-1-(2-oxo-1-phenyl-2-(4-(3-(trifluoromethyl)phenyl)-piperazin-1-yl)ethyl)pyrrolidine-2,5-dione hydrochloride]
hepatotoxicity (HepG2 viability) (hepatoma HepG2 cells): generally non-toxic | ED50 (mice [1]; Mus musculus, ip, 95% confidence interval in parentheses): 67.4 mg/kg | scPTZ screening: number of mice protected / number of mice tested (mice [1]; 100 mg/kg, 0.5 h): 2/4 | CYP3A4 activity in the presence of the compound (CYP3A4; 10 µM): higher than 50% | CYP3A4 inhibition, classification (CYP3A4; significant inhibition only at 10 µM and 25 µM (p < 0.0001)): moderate inhibitor | ED50 (mice [2]): 63.2 mg/kg | effect on neuromuscular strength (grip strength) (mice [3]; 30 mg/kg i.p.): did not significantly affect | effect on grip strength (mice [3]; 60 mg/kg i.p., p < 0.05 (Dunnett)): significantly decreased | ED50 (mice [4]): 54.1 mg/kg | ED50 (mice [5]; 0–5 min after formalin, read-out: ED50 formalin test, phase I): 85.1 mg/kg | ED50 (mice [5]; 15–30 min after formalin, read-out: ED50 formalin test, phase II): 56.1 mg/kg
